According to patent US4792568A, “Aryl pyrroles as useful antiallergy compounds” (Rorer Pharmaceutical Corporation, priority 1986, dated 1988):

Tests used:
5-lipoxygenase = molecular target: T1, 5-lipoxygenase (Rattus norvegicus, UniProt P12527); test: Inhibition of 5-lipoxygenase (5-HETE formation from [14C]-arachidonic acid in rat neutrophils, Calcium Ionophore A23187); assay type: cell-based; conditions: 3 minutes at 30° C.; for IC50: net 5-HETE, read-out: concentration required for inhibition of the 5-lipoxygenase (5-LOX/I50)
T1 construct: A suspension of rat neutrophils in buffer; endogenous in cells; host or cells: rat neutrophils
T1 sequence (P12527 1-673): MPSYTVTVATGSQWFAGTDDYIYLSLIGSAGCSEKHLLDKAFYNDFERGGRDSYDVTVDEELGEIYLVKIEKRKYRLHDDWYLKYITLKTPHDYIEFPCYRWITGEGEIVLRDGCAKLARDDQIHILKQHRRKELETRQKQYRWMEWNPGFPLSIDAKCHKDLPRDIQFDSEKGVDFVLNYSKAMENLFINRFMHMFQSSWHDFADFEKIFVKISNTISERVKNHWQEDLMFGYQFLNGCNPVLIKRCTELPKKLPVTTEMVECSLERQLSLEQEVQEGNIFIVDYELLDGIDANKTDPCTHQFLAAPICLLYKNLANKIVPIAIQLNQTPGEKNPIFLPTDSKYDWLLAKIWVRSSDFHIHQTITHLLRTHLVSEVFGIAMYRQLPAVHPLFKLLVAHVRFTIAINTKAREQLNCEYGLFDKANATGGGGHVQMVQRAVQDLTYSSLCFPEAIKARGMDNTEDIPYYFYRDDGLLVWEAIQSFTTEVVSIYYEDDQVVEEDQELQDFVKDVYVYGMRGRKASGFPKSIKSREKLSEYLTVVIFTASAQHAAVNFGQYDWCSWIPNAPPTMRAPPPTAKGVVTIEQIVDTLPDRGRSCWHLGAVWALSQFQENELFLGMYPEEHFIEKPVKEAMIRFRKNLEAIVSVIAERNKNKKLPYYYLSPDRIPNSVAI
Description: The following protocol describes an assay to detect inhibitors of the lipoxygenase. Such inhibitors are believed to be capable of modulating the biosynthesis of the leukotrienes, a property believed to be useful in treating asthma and inflammatory disease states.
A suspension of rat neutrophils in buffer is incubated for 3 minutes at 30° C. with [^14 C]-arachidonic acid (AA) and Calcium Ionophore A23187. Citric acid (2M) is used to quench the reaction. Following the addition of a trace amount of (^3 H)-5-HETE together with an excess of unlabeled 5-HETE to each tube, the mixture is extracted with chloroform/methanol. The organic layer is washed wth dilute acid and an aliquot is transferred to glass tubes and dried. The residue is dissolved in a small volume of chloroform and an aliquot is spotted on silica gel TLC sheets, which are developed with an ethyl acetate/isooctane/water/acetic acid solvent system. The 5-HETE spots are visualized with iodine, cut out and placed in scintillation vials for counting. After adjusting for the extraction efficiency, the amount (pmole) of [^14 C]-5-HETE in each of the tubes is quantitated. The net pmoles of 5-HETE are obtained by subtracting the pmoles of 5-HETE in the tubes containing buffer alone (blank) from the pmoles of 5-HETE in the tubes containing […]. The ability of the test compounds to modulate the activity of this enzyme is determined by a decrease or increase in the net amount of 5-HETE produced.

[1] = system: leukotriene C4-induced contraction of guinea pig peripheral strips; test: SRS-A antagonists (SALTI): inhibition of leukotriene C4-induced contraction of guinea pig peripheral lung strips; assay type: cell-based; conditions: 0.2 nM leukotriene C4, 37° C.; for IC50: Cavia porcellus, read-out: concentration required for 50% inhibition of leukotriene C4-induced contraction (I50)
Description: Peripheral strips of guinea pig lungs are prepared and hung in tissue baths (Metro #ME-5505, 10 ml) according to the published procedure (Pro. Nat'l. Acad. Sci., U.S.A. Volume 77, pp. 4354-4358, 1980). The strips are thoroughly rinsed in Assay Buffer and then connected with surgical silk thread to the support rods from the tissue baths. The rods are adjusted in the baths and the strips connected to the pressure transducers (Grass FT 103 or Gould UC-3--. The tissue baths are aerated with 95% oxygen-5% carbon dioxide and maintained at 37° C. The Assay Buffer has been made as follows:
For each liter of buffer the following are added to approximately 800 ml of water distilled in glass: 6.87 g NaCl, 0.4 g KCl, […] NaHCO3, 0.14 g NaH2 PO4 H2 O, 0.21 g MgSO4 7H2 O, and 2.0 g D-glucose. Tehn a solution of 0.368 g CaCl2 2H2 O in 100 ml glass-distilled water is slowly added to the buffer. Sufficient water is added to adjust the volume to one liter, and the solution is aerated with 95% oxygen--5% carbon dioxide. Usually 10 liters of buffer are used for an experiment with 4 tissues.
After the tissues have been repeatedly washed and allowed to equilibrate in the tissue bath, they are challenged with 1 μM histamine. After maximum contractions have been obtained, the tissues are washed, and allowed to relax back to baseline tension. This histamine challenge procedure is repeated at least 1 to 2 more times ot obtain a repeatable control response. The average response to 1 μM histamine for each tissue is used to normalize all other challenges.
Responses of each tissue to a predetermined concentration of leukotriene are then obtained. Usually test compounds are examined initially at 30 μM on resting tension of the tissues without any added agonist or antagonist to determine if the compound has any possible intrinsic activity. The tissues are washed, and the test compound is added again. Leukotriene is added after the desired pre-incubation time. The intrinsic activity of the compounds and their effect on leukotriene-induced contractions are then recorded.
The concentration required for 50% inhibition of 0.2 nM leukotriene C4 -induced contraction of guinea pig peripheral strips for the compounds of the Examples 1 to 6 is as follows: […]

| IC50 (5-lipoxygenase) | IC50 [1] | relative activity at 10 μM (5-lipoxygenase inhibition) (5-lipoxygenase) | SMILES | concentration required for 50% inhibition of leukotriene C4-induced contraction (I50) [1] |
| --- | --- | --- | --- | --- |
| 4 µM | – | – | CCCCCC(O)c1ccn(-c2cccc(Oc3ccccc3)c2)c1 (stereo not shown) [Example 4, 3-(1-Hydroxyhexyl)-1-(3-phenoxyphenyl)pyrrole] | – |
| – | 18 µM | medium | O=Cc1ccn(-c2cccc(Oc3ccccc3)c2)c1 [Example 2, 1-(3-Phenoxyphenyl)-pyrrole-3-aldehyde] | – |
| – | 20 µM | medium | O=Cc1cccn1-c1cccc(Oc2ccccc2)c1 [Example 1, 1-(3-Phenoxyphenyl)-pyrrole-2-aldehyde] | – |
| 7 µM | – | – | CCCCCC(O)c1cccn1-c1cccc(Oc2ccccc2)c1 (stereo not shown) [Example 3, 2-(1-Hydroxyhexyl)-1-(3-phenoxyphenyl)pyrrole] | Inactive |
| 20 µM | – | – | CCCCCC(O)c1cccn1-c1ccccc1 (stereo not shown) [Example 5, 2-(1-Hydroxyhexyl)-1-phenylpyrrole] | Inactive |
| – | – | medium | CCCCCC(O)c1ccn(-c2ccccc2)c1 (stereo not shown) [Example 6, 3-(1-Hydroxyhexyl)-1-phenylpyrrole] | – |
